Laboratory results taken from patent publication US20110046058A1, “COMPOSITIONS FOR ENTERAL ABSORPTION AND SUSTAINED ACTION OF LEPTIN-RELATED PEPTIDES USEFUL IN THE TREATMENT OF OBESITY AND LEPTIN-MODULATED DISEASE” (AEGIS THERAPEUTICS LLC, priority 2009, published 2011).
Where two headings read alike, the source gives them in different places. Values belong to the compound of their own block, whether it stands above or below them. Where a SMILES comes first, the peptide text is derived from it.

Key:
[1] = mouse, in vivo, 1 mg
Description: (§1) Six week-old male Swiss Webster mice weighing approximately 30 gm were maintained at a constant temperature (24 C) with lights on from 07:00 to 19:00 h, and allowed food and water ad libitum until used for uptake studies. […] For sc, im, and ip delivery, the peptide was dissolved in sterile phosphate buffered saline (PBS, pH 7.2) at a concentration of 1 mg/200 μL as described previously containing 0.18% tetradecyl-beta-D-maltoside. For oral gavage [D-Leu-4]OB3 was dissolved in 0.3% dodecyl-beta-D-maltoside reconstituted in PBS (pH 7.2) at a concentration of 1 mg/200 μL. At time zero (0), a single 200 μL sc, im, ip or oral dose of mouse [D-Leu-4]OB3 was given to each of six mice per time point. Following peptide administration, the mice were transferred to separate cages for the designated time period.
(§2) Five, 10, 20, 40, 60, or 120 minutes after peptide delivery, the mice were anesthetized with isoflurane (5%) and exsanguinated by cardiac puncture. The blood was collected in sterile nonheparinized plastic centrifuge tubes and allowed to stand at room temperature for 1 h. The clotted blood was rimmed from the walls of the tubes with sterile wooden applicator sticks. Individual serum samples were prepared by centrifugation for 30 min at 2600×g in an Eppendorf™ 5702R, A-4-38 rotor (Eppendorf North America, Westbury, N.Y., USA), and stored frozen until assayed for mouse [D-Leu-4]OB3 content by competitive ELISA.
(§3) The [D-Leu-4]OB3 competitive ELISA assay was carried out as follows. 96-well polystyrene plates (Pierce Biotechnology, Inc., Rockford, Ill., USA) were coated with 100 μL of a 5 ug/ml solution of BSA-conjugated mouse [D-Leu-4]OB3 (QED Bioscience, San Diego, Calif.) in carbonate-bicarbonate buffer (pH 9.4). The coated plates were incubated overnight at 4 C. Unoccupied sites were blocked with 200 μL StartingBlock™ in PBS (Pierce Biotechnology Inc., Rockford, Ill., USA) for 2 h at room temperature. Mouse [D-Leu-4]OB3 standards ranging from 5 to 10,000 ng/ml are prepared in PBS (pH 7.2). In a separate incubation, 100 μL of mouse [D-Leu-4]OB3 primary antibody raised in New Zealand White rabbits (QED Bioscience, San Diego, Calif.) and diluted to 1:5000 in StartingBlock™, or 100 μL of the primary antibody+50 μL of each standard or serum sample are added to 500 μL microcentrifuge tubes and incubated for 1 h at 37 C. At the end of the incubation period, 100 μL of each antibody-bound standard or sample were added to the wells and incubated for 1 h at room temperature. HRP-conjugated goat-anti-rabbit IgG (Pierce Biotechnology Inc, Rockford, Ill., USA) was used as the secondary antibody. 100 μL was added to each well and incubated for 1 h at room temperature. At the end of the incubation period, 100 μL of ABTS substrate (Pierce Biotechnology Inc, Rockford, Ill., USA) was added to each well and incubated for 30 minutes on a rotary rocker. Color development was stopped with 1% SDS. Absorbance was read at 405 nm with a Molecular Devices microplate reader (MDS Sciex, Concord, Ontario Canada). Each sample was assayed in triplicate. […] The relative bioavailability was determined by plotting the serum concentrations of mouse [D-Leu-4]OB3 vs. time following ip, sc, or im delivery using the graphics program SigmaPlot™ 8.0 (SPSS Science, Chicago, Ill., USA). The area under each curve (AUC) was calculated with a function of this program.

[2] = mouse, in vivo
Description: (§4) Six week-old male Swiss Webster mice weighing approximately 30 g were obtained from Taconic Farms (Germantown, N.Y., USA). The animals were housed three per cage in polycarbonate cages fitted with stainless steel wire lids and air filters, and supported on ventilated racks (Thoren Caging Systems, Hazelton, Pa., USA) in the Albany Medical College Animal Resources Facility. The mice were maintained at a constant temperature (24° C.) with lights on from 07:00 to 19:00 h, and allowed food and water ad libitum until used for uptake studies.
(§5) Following peptide administration the mice were transferred to separate cages for the designated time period.
(§6) Five, 10, 20, 40, 60, or 120 min after peptide delivery, the mice were anesthetized with isoflurane (5%) and exsanguinated by cardiac puncture. The blood was collected in sterile nonheparinized plastic centrifuge tubes and allowed to stand at room temperature for 1 h. The clotted blood was rimmed from the walls of the tubes with sterile wooden applicator sticks.
(§7) The coated plates were incubated overnight at 4° C. Unoccupied sites were blocked with 200 μL StartingBlock™ in PBS (Pierce Biotechnology Inc., Rockford, Ill., USA) for 2 h at room temperature. […] At the end of the incubation period, 100 μL of each antibody-bound standard or sample was added to the wells and incubated for 1 h at room temperature. HRP-conjugated goat-anti-rabbit IgG (Pierce Biotechnology Inc. Rockford, Ill., USA) was used as the secondary antibody. 100 μL was added to each well and incubated for 1 h at room temperature.

[3] = mouse, in vivo; remark: listed apart in the source
Description: as §1, §2, §3

[4] = mouse, in vivo; remark: listed apart in the source
Description: as §4, §5, §6, §7

[5] = in vivo
Excerpt: (§8) Typically, an acceptable daily intake for humans is about 1% of the NOAEL, which translates to about 14-21 grams, or 14 million micrograms to 21 million micrograms, per day, indefinitely.

[6] = FAO/WHO report; cited from earlier work
[7] = NOAEL of alkylsaccharide (FAO/WHO report); settings: per day, indefinitely
Excerpt: as §8

AUC ([1]; im): 24700 ng·h/mL
AUC ([1]; ip): 17900 ng·h/mL
AUC ([1]; po): 9320 ng·h/mL
AUC ([1]; sc): 19700 ng·h/mL
Cmax ([2]; im, 1 mg): 46600 ng/mL
Tmax ([2]; im, 1 mg): 5 min
AUC ([2]; im, 1 mg, AUC): 24700 ng·h/mL
half-life ([2]; im, 1 mg, t1/2 (serum half-life)): 48.8 min
AUC ([2]; inhaled or intranasal, 1 mg, AUC1): 15400 ng·h/mL
AUC ([2]; inhaled or intranasal, 1 mg, AUC2): 56900 ng·h/mL
half-life ([2]; inhaled or intranasal, t1/2 1): 7 min
half-life ([2]; inhaled or intranasal, t1/2 1 + t1/2 2 (overall half-life)): 41.1 min
half-life ([2]; inhaled or intranasal, t1/2 2): 34.1 min
Cmax ([2]; ip, 1 mg): 22500 ng/mL
Tmax ([2]; ip, 1 mg): 5 min
AUC ([2]; ip, 1 mg, AUC): 17900 ng·h/mL
half-life ([2]; ip, 1 mg, t1/2 (serum half-life)): 30 min
Cmax ([2]; sc, 1 mg): 35100 ng/mL
Tmax ([2]; sc, 1 mg): 5 min
AUC ([2]; sc, 1 mg, AUC): 19700 ng·h/mL
half-life ([2]; sc, 1 mg, t1/2 (serum half-life)): 35 min
Relative Oral Bioavailability Compared to Three Injection Modes (% of AUC achieved by each respective injection) [3]: 52.2% of IP AUC
Relative Oral Bioavailability Compared to Three Injection Modes (% of AUC achieved by each respective injection) ([3]; po): 37.8% of IM AUC
CL1 [4]: 1.08 mL/min
CL2 [4]: 0.29 mL/min
Relative bioavailability [4]: 4.0
kelim1 [4]: 0.0986 min⁻¹
kelim2 [4]: 0.0203 min⁻¹
Relative bioavailability ([4]; im): 1.4
AUC ([4]; im, 1 mg): 1,481,060 ng/ml/min
CL (plasma clearance) ([4]; im, 1 mg): 0.68 mL/min
Vd (apparent volume of distribution) ([4]; im, 1 mg): 29.4 mL
CL1 + CL2 (overall clearance) ([4]; inhaled or intranasal): 1.37 mL/min
Vd1 ([4]; inhaled or intranasal): 1.1 mL
Vd1 + Vd2 (overall volume of distribution) ([4]; inhaled or intranasal): 15.4 mL
Vd2 ([4]; inhaled or intranasal): 14.3 mL
Cmax2 ([4]; inhaled or intranasal, 1 mg): 69,069 ng/ml
Tmax2 ([4]; inhaled or intranasal, 1 mg): 60 min
tmax1 ([4]; inhaled or intranasal, 1 mg): 10 min
Relative bioavailability ([4]; ip): 1.0
AUC ([4]; ip, 1 mg): 1,072,270 ng/ml/min
CL (plasma clearance) ([4]; ip, 1 mg): 0.93 mL/min
Vd (apparent volume of distribution) ([4]; ip, 1 mg): 65.5 mL
Relative bioavailability ([4]; sc): 1.1
AUC ([4]; sc, 1 mg): 1,182,498 ng/ml/min
CL (plasma clearance) ([4]; sc, 1 mg): 0.85 mL/min
Vd (apparent volume of distribution) ([4]; sc, 1 mg): 42.9 mL
t1/2 (serum half-life) ([4]; sc, 1 mg): 34.0 min
Compound: CC(C)C[C@@H](NC(=O)[C@H](CO)NC(=O)[C@H](CS)NC(=O)[C@@H](N)CO)C(=O)N1CCC[C@H]1C(=O)N[C@@H](CCC(N)=O)C(=O)N[C@H](C(N)=O)[C@@H](C)O [mouse [D-Leu-4]OB3] (HELM PEPTIDE1{S.C.S.[dL].P.Q.T.[am]}$$$$V2.0; N-terminus assumed)

Compound: sucrose dodecanoate
amount a 70 kilogram person can consume per day without any observable adverse effect [5]: 1400-2100 grams
NOAEL [6]: 20-30 grams/kilogram/day
acceptable daily intake for humans (about 1% of the NOAEL) [7]: 14-21 grams
